# Data published in PMC5845353, “The selective cathepsin K inhibitor MIV-711 attenuates joint pathology in experimental animal models of osteoarthritis” (Journal of Translational Medicine, 2018).
# Marks after values point to notes of the source that are not given here.
# Tested on: rabbits subjected to anterior cruciate ligament transection (ACLT)
# Assay: Rabbit ACLT study, µCT of trabecular bone
# Assay type: in vivo
# Text: The animals were acquired following review and approval by the Institutional Animal Care and Use Committee (IACUC) at Numira (Salt Lake City, UT). The protocol was also reviewed and approved by the IACUC at Ibex Preclinical Research Inc. (Logan, UT). Male, New Zealand White rabbits (n = 32) were purchased from the Western Oregon Rabbit Co. (Philomath, OR). The animals were approximately 9 months old, weighed 3.7–4.5 kg at the start of the experiment and were randomized into four treatment groups based on body weight.
# Pre-operative butorphanol (0.5–1.0 mg/kg, i.m.) for analgesia and glycopyrrolate (~ 0.1 mg/kg i.m.) were administered up to 15 min prior to induction. Anesthesia was induced by a mixture of ketamine (20–40 mg/kg, i.m.) and xylazine (5–10 mg/kg, i.m.), followed by placement of an endotracheal tube. General anesthesia was maintained with isoflurane. Perioperative cefazolin (40 mg/kg, i.v.) was administered, and […] (0.2 mg/kg, i.v.) was administered to reverse the effects of xylazine after endotracheal intubation was complete. A fentanyl patch (25 µg/h) was placed on a clipped area of the skin to provide post-operative analgesia. An incision of 1.5–2.5 cm was made in the skin over the medial side of the right knee under aseptic conditions. The patella was dislocated laterally and the knee placed in full flexion. The anterior cruciate ligament (ACL) was visualized and transected with an appropriate blade. In sham animals, the ACL was visualized but not transected. The joint was irrigated with sterile saline and closed. The muscle and skin were closed with suture and/or surgical glue. Butorphanol (0.5–1 mg/kg, i.m.) was administered after extubation to provide supplemental analgesia. The animals were then individually housed in stainless steel or plastic cages.
# Starting 1 week after sham operation or ACLT, animals were dosed daily for 7 weeks by oral gavage with either MIV-711 (synthesized by Medivir and given as a suspension in 1% Methocel A4C in water) or vehicle (1% Methocel A4C in water) at a dose volume of 4 mL/kg. The four treatment groups (n = 7 in each group) were: (1) sham + vehicle; (2) ACLT + vehicle; (3) ACLT + MIV-711, 30 µmol/kg (low dose) and (4) ACLT + MIV-711, 100 µmol/kg (high dose).
# Femora and tibias from all animals were subjected to µCT scanning without and with contrast reagent, to visualize bone and cartilage, respectively. Samples were scanned on a high-resolution, volumetric µCT scanner (μCT40, ScanCo Medical, Zurich, CH). The image data was acquired with the following parameters: 36 μm isotropic voxel resolution at 300 ms exposure time, 2000 views and 1 frame per view. Each sample was scanned twice, once for acquiring bone data and once for soft tissue data. After the bone scans, the knees were stained using hexabrix for contrast-enhanced imaging of the cartilage. The µCT-generated DICOM files were used to analyze the samples and to create volume renderings of the regions of interest (ROI). The raw data files were converted into a file format compatible with the segmentation software VHLab (Numira). VHLab was used for segmenting out the regions of interest (osteophyte, cartilage, and subchondral bone) for the femur and tibia of each sample. A region spanning 9 mm of the articulating surface of the femur and 6.5 mm of the tibia was selected for segmenting out the cartilage and subchondral bone in the anterior–posterior direction. After the segmentation process, the voxel count associated with each of the regions of interest was calculated using VHLab. The voxel count was then multiplied by the cubic voxel resolution to obtain volume measurements for the different ROI. Cartilage thickness was calculated using SCIRun (Scientific Computing and Imaging Institute, University of Utah). The distance from the bone to the outer surface of the articulating cartilage was calculated. An image was generated that translates the distances into a color map for viewing the thickness along the length of the cartilage. […]
# [1] = Femur Lateral, high dose 100 µmol/kg
# [2] = Femur Lateral, low dose 30 µmol/kg
# [3] = Femur Medial, high dose 100 µmol/kg
# [4] = Femur Medial, low dose 30 µmol/kg
# [5] = Tibia Lateral, high dose 100 µmol/kg
# [6] = Tibia Lateral, low dose 30 µmol/kg
# [7] = Tibia Medial, high dose 100 µmol/kg
# [8] = Tibia Medial, low dose 30 µmol/kg
smiles,measurement,setting,value
C#C[C@@H]1CN(C(=O)[C@H](CC(C)C)NC(=O)c2ccc(-c3nc(N4CCN(C)CC4)sc3F)cc2)[C@@H]2C(=O)CO[C@H]12 [MIV-711],Bone surface,[1],101.7 ± 2.9 mm^2
same,Bone surface/volume,[1],18.7 ± 0.8 1/mm
same,Connective density,[1],11.90 ± 1.51 1/mm^3
same,Structure model index,[1],0.63 ± 0.11
same,Tissue mineral density,[1],673.6 ± 7.0 mgHA/ccm
same,Trabecular bone volume,[1],5.5 ± 0.2 mm^3
same,Trabecular number,[1],2.55 ± 0.10 1/mm
same,Trabecular separation,[1],0.40 ± 0.02 mm
same,Trabecular thickness,[1],0.19 ± 0.01 mm
same,Bone surface,[2],101.2 ± 4.3 mm^2
same,Bone surface/volume,[2],19.9 ± 1.3 1/mm
same,Connective density,[2],13.51 ± 1.54 1/mm^3
same,Structure model index,[2],0.73 ± 0.15
same,Tissue mineral density,[2],669.6 ± 8.4 mgHA/ccm
same,Trabecular bone volume,[2],5.3 ± 0.5 mm^3
same,Trabecular number,[2],2.58 ± 0.16 1/mm
same,Trabecular separation,[2],0.40 ± 0.03 mm
same,Trabecular thickness,[2],0.18 ± 0.01 mm
same,Bone surface,[3],105.2 ± 1.3 mm^2
same,Bone surface/volume,[3],15.1 ± 1.0 1/mm
same,Connective density,[3],9.14 ± 0.63 1/mm^3
same,Structure model index,[3],0.40 ± 0.07
same,Tissue mineral density,[3],699.1 ± 10.3 mgHA/ccm
same,Trabecular bone volume,[3],7.2 ± 0.5 mm^3
same,Trabecular number,[3],3.71 ± 0.68 1/mm
same,Trabecular separation,[3],0.30 ± 0.03 mm
same,Trabecular thickness,[3],0.22 ± 0.02 mm
same,Bone surface,[4],105.6 ± 3.8 mm^2
same,Bone surface/volume,[4],16.0 ± 1.6 1/mm
same,Connective density,[4],11.42 ± 1.61 1/mm^3
same,Structure model index,[4],0.48 ± 0.07
same,Tissue mineral density,[4],698.4 ± 15.7 mgHA/ccm
same,Trabecular bone volume,[4],7.0 ± 0.7 mm^3
same,Trabecular number,[4],3.02 ± 0.20 1/mm
same,Trabecular separation,[4],0.34 ± 0.02 mm
same,Trabecular thickness,[4],0.22 ± 0.03 mm
same,Bone surface,[5],152.7 ± 4.1 mm^2
same,Bone surface/volume,[5],14.9 ± 0.5 1/mm
same,Connective density,[5],16.25 ± 2.01 1/mm^3
same,Structure model index,[5],0.42 ± 0.11
same,Tissue mineral density,[5],707.0 ± 6.6 mgHA/ccm
same,Trabecular bone volume,[5],10.3 ± 0.4* mm^3
same,Trabecular number,[5],3.01 ± 0.16 1/mm
same,Trabecular separation,[5],0.34 ± 0.02 mm
same,Trabecular thickness,[5],0.22 ± 0.01 mm
same,Bone surface,[6],153.6 ± 4.1 mm^2
same,Bone surface/volume,[6],16.0 ± 1.2 1/mm
same,Connective density,[6],16.55 ± 1.95 1/mm^3
same,Structure model index,[6],0.51 ± 0.12
same,Tissue mineral density,[6],700.8 ± 10.6 mgHA/ccm
same,Trabecular bone volume,[6],9.9 ± 0.7 mm^3
same,Trabecular number,[6],2.96 ± 0.15 1/mm
same,Trabecular separation,[6],0.34 ± 0.02 mm
same,Trabecular thickness,[6],0.21 ± 0.01 mm
same,Bone surface,[7],124.9 ± 4.6 mm^2
same,Bone surface/volume,[7],13.2 ± 0.2 1/mm
same,Connective density,[7],8.47 ± 0.69 1/mm^3
same,Structure model index,[7],0.41 ± 0.10
same,Tissue mineral density,[7],726.9 ± 5.5 mgHA/ccm
same,Trabecular bone volume,[7],9.5 ± 0.5 mm^3
same,Trabecular number,[7],2.09 ± 0.15 1/mm
same,Trabecular separation,[7],0.50 ± 0.04 mm
same,Trabecular thickness,[7],0.26 ± 0.00 mm
same,Bone surface,[8],124.9 ± 3.3 mm^2
same,Bone surface/volume,[8],14.6 ± 1.2 1/mm
same,Connective density,[8],9.20 ± 1.08 1/mm^3
same,Structure model index,[8],0.52 ± 0.16
same,Tissue mineral density,[8],714.1 ± 13.1 mgHA/ccm
same,Trabecular bone volume,[8],8.9 ± 0.7 mm^3
same,Trabecular number,[8],2.05 ± 0.08 1/mm
same,Trabecular separation,[8],0.49 ± 0.02 mm
same,Trabecular thickness,[8],0.25 ± 0.02 mm
same,"trabecular bone volume, lateral tibia, difference vs. sham",low dose 30 µmol/kg,-8%
